The results in this text go back to ChEMBL document CHEMBL1148765, “Design, synthesis, and estrogenic activity of a novel estrogen receptor modulator--a hybrid structure of 17beta-estradiol and vitamin E in hippocampal neurons” (J Med Chem, 2007).

A short description of assay [1]: Effect on glutamate-induced neurotoxicity in rat hippocampal neurons assessed increase in neuronal membrane integrity at 100 nM after 48 hrs relative to glutamate. It counts as functional, Hippocampus, Hippocampal neurone.
Assay [2] is described as follows: Effect on glutamate-induced neurotoxicity in rat hippocampal neurons assessed increase in neuronal membrane integrity at 1000 nM after 48 hrs relative to glutamate. It counts as functional, Hippocampus, Hippocampal neurone.
Assay [3] in a line: Increase in spinophilin expression in rat hippocampal neurons at 10 nM after 48 hrs by Western immunoblotting relative to control. It counts as functional, Hippocampus, Hippocampal neurone. On the technique in general: A western blot detects proteins with antibodies after separation by electrophoresis.
Assay [4] is described as follows: Effect on glutamate-induced neurotoxicity in rat hippocampal neurons assessed increase in neuronal membrane integrity at 10 nM after 48 hrs relative to glutamate. It counts as functional, Hippocampus, Hippocampal neurone.
For assay [5], the system named is Hippocampal neurone. The experiment in a line: Increase in Akt phosphorylation in rat hippocampal neurons at 100 nM after 30 mins by Western immunoblotting relative to control. The settings on record: Hippocampus. It counts as tissue-based.
Assay [6] can be described thus: Increase in Bcl2 expression in rat hippocampal neurons at 10 nM after 48 hrs by Western immunoblotting relative to control. It counts as functional, Hippocampus, Hippocampal neurone.
Assay [7] can be described thus: Increase in Bcl-XL expression in rat hippocampal neurons at 10 nM after 48 hrs by Western immunoblotting relative to control. The format is functional, Hippocampus, Hippocampal neurone.
Assay [8] can be described thus: Effect on glutamate-induced loss of metabolic viability in rat hippocampal neurons assessed as increase in neuronal viability at 1000 nM after 48 hrs relative to glutamate. It counts as functional, Hippocampus, Hippocampal neurone.
The nature of assay [9]: Effect on glutamate-induced loss of metabolic viability in rat hippocampal neurons assessed as increase in neuronal viability at 100 nM after 48 hrs relative to glutamate. It counts as functional, Hippocampus, Hippocampal neurone.
Assay [10] is described as follows: Effect on glutamate-induced loss of metabolic viability in rat hippocampal neurons assessed as increase in neuronal viability at 1 nM after 48 hrs relative to glutamate. The format is functional, Hippocampus, Hippocampal neurone.
Assay [11] deals with T1, Estrogen receptor (Homo sapiens, UniProt P03372).
T1 sequence (P03372 whole entry): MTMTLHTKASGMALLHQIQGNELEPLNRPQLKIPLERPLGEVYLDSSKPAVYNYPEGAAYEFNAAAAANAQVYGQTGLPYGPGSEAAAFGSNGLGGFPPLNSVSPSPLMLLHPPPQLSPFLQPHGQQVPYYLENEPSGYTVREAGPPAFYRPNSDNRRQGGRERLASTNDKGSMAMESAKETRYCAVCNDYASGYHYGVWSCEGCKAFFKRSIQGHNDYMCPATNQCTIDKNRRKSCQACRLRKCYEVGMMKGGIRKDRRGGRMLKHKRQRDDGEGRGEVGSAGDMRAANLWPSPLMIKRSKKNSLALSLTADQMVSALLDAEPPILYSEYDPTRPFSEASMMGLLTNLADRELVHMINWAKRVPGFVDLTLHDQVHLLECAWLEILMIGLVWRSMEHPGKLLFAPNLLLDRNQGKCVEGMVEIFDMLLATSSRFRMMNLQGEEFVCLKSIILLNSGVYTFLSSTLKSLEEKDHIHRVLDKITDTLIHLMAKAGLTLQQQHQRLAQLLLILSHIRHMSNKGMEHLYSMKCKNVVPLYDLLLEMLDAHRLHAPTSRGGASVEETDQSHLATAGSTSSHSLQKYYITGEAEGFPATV
Description: Binding affinity to human ERalpha

Assay [12] is described as follows: Increase in ERK2 phosphorylation in rat hippocampal neurons at 100 nM after 30 mins by Western immunoblotting relative to control. It counts as functional, Hippocampus, Hippocampal neurone.
Assay [13] in a line: Effect on glutamate-induced loss of metabolic viability in rat hippocampal neurons assessed as increase in neuronal viability at 10 nM after 48 hrs relative to glutamate. The format is functional, Hippocampus, Hippocampal neurone.
The nature of assay [14]: Effect on glutamate-induced neurotoxicity in rat hippocampal neurons assessed increase in neuronal membrane integrity at 1 nM after 48 hrs relative to glutamate. It counts as functional, Hippocampus, Hippocampal neurone.
In assay [15] the target is Estrogen receptor beta (Homo sapiens, UniProt Q92731).
Estrogen receptor beta, sequence (Q92731 whole entry): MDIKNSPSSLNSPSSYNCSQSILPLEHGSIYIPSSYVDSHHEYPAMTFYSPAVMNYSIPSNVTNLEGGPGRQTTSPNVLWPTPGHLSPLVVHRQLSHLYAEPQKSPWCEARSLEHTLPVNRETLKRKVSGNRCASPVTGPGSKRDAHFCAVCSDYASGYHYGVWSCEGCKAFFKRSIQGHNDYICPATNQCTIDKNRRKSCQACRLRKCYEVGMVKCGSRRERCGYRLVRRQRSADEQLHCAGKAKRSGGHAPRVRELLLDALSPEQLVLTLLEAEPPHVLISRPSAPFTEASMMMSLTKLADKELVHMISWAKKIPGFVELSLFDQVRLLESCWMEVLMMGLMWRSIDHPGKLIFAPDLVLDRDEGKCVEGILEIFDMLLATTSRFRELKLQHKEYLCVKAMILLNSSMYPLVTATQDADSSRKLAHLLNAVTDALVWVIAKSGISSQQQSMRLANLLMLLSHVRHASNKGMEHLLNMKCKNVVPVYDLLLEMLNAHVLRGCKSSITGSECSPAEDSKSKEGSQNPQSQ
Description: Binding affinity to human ERbeta
Assay [16] is filed under the species Homo sapiens. The experiment in a line: Selectivity for ERbeta over ERalpha.

SMILES strings stand for the structures. pIC50: −log10 of the molar value.

The term pIC50 denotes the IC50 on a negative log10 scale, so that one unit is a factor of ten. Higher therefore signals a small IC50.

Turning to `CC(C)CCC[C@@H](C)CCC[C@@H](C)CCC[C@@H]1Cc2cc(O)ccc2[C@H]2CC[C@]3(C)[C@@H](O)CC[C@H]3[C@H]12`, the Activity in assay [1] was determined as 67%; in [2] it was 59.1%; in [3], 61.7%; in assay [4], 44.1%; in assay [5], 139%; in [6], 23.4%. In addition, the Activity is reported as 58% in assay [7]; 25.6% in assay [8]; 28.4% in assay [9]; 2.7% in assay [10]; 46.3% in assay [12]; 9.3% in assay [13]. The molecule further returned an Activity in assay [14] of 38.6%. Further, the pIC50 in assay [11] is 6.71; in [15], 6.57.
In the case of `Oc1ccc(/C=C/c2cc(O)cc(O)c2)cc1`, the Selectivity ratio in assay [16] stood at 48.
